Values joined by “and” are separate entries in the source; they are usually repeats but may differ in a detail not shown here. Identical values can stand only once.
Experiment: solvent given as SMILES

## CC1(C)c2ccccc2N(c2cc[n+]3c(c2)-c2ccccc2O[B-]3(F)F)c2ccccc21
In Cc1ccccc1
  emission maximum: 540 nm
In O=P(c1ccccc1)(c1ccccc1)c1ccccc1Oc1ccccc1P(=O)(c1ccccc1)c1ccccc1
  emission maximum: 542 nm

## CCCCCCCCOc1ccc(C2=C3C(C)=C(C#Cc4ccc(B(c5c(C)cc(C)cc5C)c5c(C)cc(C)cc5C)cc4)C(C)=[N+]3[B-](F)(F)n3c(C)c(C#Cc4ccc(B(c5c(C)cc(C)cc5C)c5c(C)cc(C)cc5C)cc4)c(C)c32)cc1
In CC#N
  emission maximum: 598 nm
In CCCCCC
  emission maximum: 604 nm
In ClCCl
  emission maximum: 602 nm

## Cc1ccc2nc3c(=O)[nH]c(=O)[nH]c3nc2c1
In CC#N
  emission maximum: 426 nm
In ClCCCl
  emission maximum: 425 nm

## c1ccc2c(c1)CCc1ccccc1N2
In CC#N
  emission maximum: 354 nm
In CCCCCC
  emission maximum: 329 nm
In CO
  emission maximum: 359 nm

## CC1(C)c2ccccc2N(c2ccc(-c3nc4c(C#N)ccc(C#N)c4nc3-c3ccc(N4c5ccccc5C(C)(C)c5ccccc54)cc3)cc2)c2ccccc21
In Cc1ccccc1
  emission maximum: 663 nm

## Nc1ccc2c(c1)NC(=O)CC(=O)N2
In CS(C)=O
  emission maximum: 385 nm

## CC1(C)c2ccccc2N(c2ccc(-c3ccc(C#N)cn3)cc2)c2ccccc21
In Cc1ccccc1
  emission maximum: 504 nm
In N#Cc1ccc2c(c1)c1ccccc1n2-c1cccc(-n2c3ccccc3c3ccccc32)c1
  emission maximum: 495 nm

## c1ccc(N(c2ccccc2)c2ccc(-c3ccc(-c4nc(-c5ccccn5)n(-c5ccccc5)n4)cc3)cc2)cc1
In ClCCl
  emission maximum: 435 nm

## CCN(CC)c1ccc2c(c1)oc(=O)c1cc3c(-c4ccccc4)nn(-c4ccccc4)c3nc12
In ClCCl
  emission maximum: 509 nm

## CCCCCCCCn1c2ccc(/C=C/c3ccc(N(c4ccccc4)c4ccccc4)cc3)cc2c2cc3c(cc21)c1cc(/C=C/c2ccc(N(c4ccccc4)c4ccccc4)cc2)ccc1n3CCCCCCCC
In Cc1ccccc1
  emission maximum: 453 nm

## COc1ccc2c(C#N)cc3ccc4cc(C#N)c5ccc(OC)cc5c4c3c2c1
In ClC(Cl)Cl
  emission maximum: 426 nm

## Cc1ccccc1C1=C2C=c3c(oc4ccccc34)=[N+]2[B-](F)(F)n2c1cc1c3ccccc3oc12
In C1CCCCC1
  emission maximum: 595.5 nm
In CCOC(C)=O
  emission maximum: 595 nm
In CO
  emission maximum: 595 nm

## Cc1ccc(C)c2nc3c(=O)[nH]c(=O)[nH]c3nc12
In CC#N
  emission maximum: 491 nm

## CC(=O)n1cc(/C=C/c2ccc([N+](=O)[O-])cc2)c2ccccc21
In CC#N
  emission maximum: 428 nm
In CCCCCCC
  emission maximum: 408 nm
In CO
  emission maximum: 424 nm
In O
  emission maximum: 537 nm

## COc1ccc(C#Cc2c3ccccc3c(C#Cc3ccc(OC)cc3)c3cc4ccccc4cc23)cc1
In ClCCl
  emission maximum: 576 nm

## Cc1cc(C)c(C2=C3C=CC(c4cccc5ccccc45)=[N+]3[B-](F)(F)n3c2ccc3-c2cccc3ccccc23)c(C)c1
In ClC(Cl)Cl
  emission maximum: 601 nm

## CC(C)(C)NC(=O)c1cccc2ccc3c4ccc(Cl)cc4c4cc(Cl)ccc4c3c12
In ClCCl
  emission maximum: 415 nm

## O=C1c2ccccc2-c2nc3c(F)c(F)c(F)c(F)c3n21
In ClCCl
  emission maximum: 485 nm

## CN(C)c1ccc(C2=Nc3scc(-c4ccc(N(C)C)cc4)[n+]3[B-](F)(F)O2)cc1
In C1CCOC1
  emission maximum: 616 nm
In Cc1ccccc1
  emission maximum: 518 nm
In ClCCl
  emission maximum: 590 nm

## CCOC(=O)c1c(-c2cc3cc4c(cc3oc2=O)OC(C)(C)CC4)nn(-c2cccc(C)c2)c1C(=O)OCC
In ClCCl
  emission maximum: 428 nm

## CC1(C)Nc2cc(Cl)ccc2-c2[nH]c3ccccc3c(=O)c21
In C1CCOC1
  emission maximum: 474 nm
In CC#N
  emission maximum: 496 nm
In CCCCO
  emission maximum: 505 nm
In CCCO
  emission maximum: 505 nm
In CCO
  emission maximum: 506 nm
In CCOC(C)=O
  emission maximum: 482 nm
In CN(C)C=O
  emission maximum: 493 nm
In CO
  emission maximum: 513 nm
In CS(C)=O
  emission maximum: 494 nm
In Cc1ccccc1
  emission maximum: 460 nm
In ClC(Cl)(Cl)Cl
  emission maximum: 451 nm
In ClCCl
  emission maximum: 473 nm
In O
  emission maximum: 536 nm
In c1ccccc1
  emission maximum: 462 nm

## Cc1ccc(C)n1-c1ccc(N(C)C)cc1
In CC#N
  emission maximum: 360 nm
In CCCCCC
  emission maximum: 347 nm

## CCCCc1cc2cccc[n+]2[b-]2c(-c3cccc4[b-]3[n+]3ccccc3cc4CCCC)cccc21
In C1CCCCC1
  emission maximum: 451 nm

## Cc1cc(=O)oc2c1cc(Br)c1occ(C)c12
In C1CCCCC1
  emission maximum: 400 nm
In C1COCCO1
  emission maximum: 407 nm
In CC#N
  emission maximum: 413 nm
In CCO
  emission maximum: 416 nm
In OCC(F)(F)F
  emission maximum: 426 nm

## CCCCCCCCCCCCN1C(=O)c2c(c3ccc4cc(-c5cccs5)c(OC)cc4c3c3c2ccc2cc(-c4cccs4)c(OC)cc23)C1=O
In ClCCl
  emission maximum: 545 nm

## Oc1ccccc1/C=N/c1cc2nc3ccccc3nc2cc1/N=C/c1ccccc1O
In CC#N
  emission maximum: 501 nm

## CCC1=C(C)c2cc3c(OC)cc(OC)cc3c(=O)n2C1=O
In CC#N
  emission maximum: 476 nm
In CO
  emission maximum: 510 nm
In CS(C)=O
  emission maximum: 485 nm
In ClC(Cl)Cl
  emission maximum: 469 nm

## CC(C)(C)c1ccc2c(c1)c1cc(C(C)(C)C)cc3c1n2-c1cc(-c2ccc(F)cc2)cc2c1B3c1cc(C(C)(C)C)cc3c4cc(C(C)(C)C)ccc4n-2c13
In Cc1ccccc1
  emission maximum: 496.94 nm

## c1ccc(-c2nc(-c3ccccc3)c(-c3ccccc3)o2)cc1
In Cc1ccccc1
  emission maximum: 381 nm

## COCCOc1ccc(OCCOC)c(C=O)c1
In CC(C)(C)O
  emission maximum: 441 nm
In CC(C)CO
  emission maximum: 451 nm
In CC(C)O
  emission maximum: 453 nm
In CCCCO
  emission maximum: 457 nm
In CCCO
  emission maximum: 458 nm
In CCO
  emission maximum: 462 nm
In CN(C)C=O
  emission maximum: 425 nm
In CNC=O
  emission maximum: 459 nm
In CO
  emission maximum: 467 nm
In NC=O
  emission maximum: 464 nm
In O
  emission maximum: 483 nm

## O=c1oc2ccc3ccccc3c2nc1-c1ccccc1
In CC#N
  emission maximum: 475 nm
In CCCCCC
  emission maximum: 453 nm
In CO
  emission maximum: 476 nm
In c1ccccc1
  emission maximum: 467 nm and 460 nm

## CC1(C)Nc2cc3nc4cc(Br)c(Br)cc4nc3cc2N1
In CCO
  emission maximum: 508 nm

## Nc1ncc2nc[nH]c2n1
In O
  emission maximum: 380 nm

## COc1ccc(/C=C/C(=O)c2c(O)cc(C)oc2=O)cc1
In CC#N
  emission maximum: 488 nm
In ClCCl
  emission maximum: 487 nm

## CCN(CC)c1ccc(-c2nc(Oc3ccc(-c4nc5ccccc5s4)cc3)nc(Oc3ccc(-c4nc5ccccc5s4)cc3)n2)cc1
In CN(C)C=O
  emission maximum: 419 nm

## CCOC(=O)c1ccc(/C=C/C2=[N+]3C(=C(c4ccccc4)c4ccc(/C=C/c5ccc(C(=O)OCC)o5)n4[B-]3(F)F)C=C2)o1
In ClC(Cl)Cl
  emission maximum: 681 nm

## Cc1ccc(N(C)C)cc1C1=C2C=CC(=[N+](C)C)C=C2[Si](C)(C)c2cc(N(C)C)ccc21
In O
  emission maximum: 662 nm

## c1ccc2c[n+]3ccccc3cc2c1
In O
  emission maximum: 404 nm

## Cc1nc2c(ccc3ccc(N(C)C)cc32)oc1=O
In c1ccccc1
  emission maximum: 564 nm

## c1ccc(-c2nc3c(ccc4[nH]ccc43)o2)cc1
In C1CCCCC1
  emission maximum: 372 nm
In C1COCCO1
  emission maximum: 409 nm
In CC#N
  emission maximum: 427 nm
In CO
  emission maximum: 437 nm
In Cc1ccccc1
  emission maximum: 390 nm
In O
  emission maximum: 459 nm

## O=Cc1ccc(-c2ccc(C3=CCC(c4ccccc4)CC3)s2)s1 (centres undefined)
In C1CCOC1
  emission maximum: 446 nm
In CC#N
  emission maximum: 483 nm
In CCCCCC
  emission maximum: 443 nm
In CCO
  emission maximum: 498 nm
In OCCOCCO
  emission maximum: 506 nm
In c1ccncc1
  emission maximum: 481 nm

## O=C1C2=C(O[B-](F)(F)[n+]3c2ccc2ccccc23)c2ccc(N3CCOCC3)c3cccc1c23
In C1CCOC1
  emission maximum: 545 nm
In CC#N
  emission maximum: 553 nm
In CCO
  emission maximum: 552 nm
In CO
  emission maximum: 558 nm
In ClCCl
  emission maximum: 544 nm

## Nc1ccc2ccc(O)cc2c1
In O
  emission maximum: 398 nm

## COc1ccccc1C1=C2C=CC(=[N+](C)C)C=C2[Si](C)(C)c2cc(N(C)C)ccc21
In O
  emission maximum: 663 nm

## Cc1cc(O)c(C(=O)/C=C/c2ccc(O)c(O)c2)c(=O)o1
In CC#N
  emission maximum: 518 nm
In ClCCl
  emission maximum: 493 nm

## COc1ccc(N(c2ccc(OC)cc2)c2ccc(-c3ccc(-c4ccc(-c5cccs5)c5nsnc45)s3)cc2)cc1
In ClC(Cl)Cl
  emission maximum: 705 nm

## CC(C)(C)OC(=O)NC(Cc1ccccc1)C(=O)OCc1ccc2c3cccc4cccc(c5cccc1c52)c43 (centres undefined)
In CCO
  emission maximum: 447 nm

## c1cc2ccc3ccc4cc3c2cc1CCCCCCc1ccc2ccc3ccc-4cc3c2c1
In Cc1ccccc1
  emission maximum: 376 nm

## Nc1ccc(N2C(=O)c3ccc4c5ccc6c7c(ccc(c8ccc(c3c48)C2=O)c75)C(=O)N(c2ccc(O)cc2)C6=O)cc1
In CN(C)C=O
  emission maximum: 537 nm

## C[C@]12SC(=O)C=C1c1nc(-c3ccccc3)[nH]c1C1=CC(=O)S[C@@]12C
In CC#N
  emission maximum: 513 nm

## Cc1cc(-c2ccccc2C)cc(C)[o+]1
In CC#N
  emission maximum: 518 nm
In ClCCl
  emission maximum: 469 nm

## O=c1cc2c(S(=O)(=O)O)c(O)c3cccc4ccc(o1)c2c43
In CC1CCCO1
  emission maximum: 472 nm

## CCc1cccc(CC)c1-c1c2ccccc2c(C#Cc2ccccc2)c2cc3ccccc3cc12
In ClCCl
  emission maximum: 538 nm

## O=C1CCCC2=C1C(c1ccccc1)c1c(c3ccccc3oc1=O)N2 (centres undefined)
In CS(C)=O
  emission maximum: 440 nm

## Cc1cc(=O)oc2cc3c(cc12)c1c2ccccc2c2ccccc2c1c1c2ccccc2c2ccccc2c31
In ClC(Cl)Cl
  emission maximum: 536 nm

## Oc1cccc(/N=C/c2ccccc2Oc2ccccc2)c1
In C1CCCCC1
  emission maximum: 402 nm
In C1COCCO1
  emission maximum: 406 nm
In CC#N
  emission maximum: 395 nm
In CC(C)=O
  emission maximum: 415 nm
In CC(C)CO
  emission maximum: 387 nm
In CC(C)O
  emission maximum: 406 nm
In CCCCC
  emission maximum: 403 nm
In CCCCCCCCO
  emission maximum: 410 nm
In CCCCCCCO
  emission maximum: 410 nm
In CCCCCCO
  emission maximum: 400 nm
In CCCCO
  emission maximum: 416 nm
In CCCCOC(C)=O
  emission maximum: 404 nm
In CCCO
  emission maximum: 395 nm
In CCOC(C)=O
  emission maximum: 420 nm
In CCOCC
  emission maximum: 404 nm
In CO
  emission maximum: 380 nm
In CS(C)=O
  emission maximum: 396 nm
In Cc1ccccc1
  emission maximum: 412 nm
In Cc1ccccc1C
  emission maximum: 403 nm
In ClC(Cl)Cl
  emission maximum: 415 nm
In ClCCl
  emission maximum: 407 nm
In N#Cc1ccccc1
  emission maximum: 385 nm
In OCCO
  emission maximum: 418 nm
In c1ccccc1
  emission maximum: 414 nm

Source: the Deep4Chem optical property database
